# Results: US20150133664A1, “CHEMICAL TRANS[…] (-)-CODEINE TO AFFORD DERIVATIVES OF CODEINE AND MORPHINE THEREOF” (BOARD OF REGENTS, THE UNIVERSITY OF TEXAS SYSTEM, priority 2012, published 2015)
# Assay: potency compared with codeine and morphine (test not described)
# Details: no assay, value or method printed
Compound,potency compared with morphine (compared with morphine),potency compared with codeine (compared with codeine)
"C[C@@H]1C[C@H]2[C@H]3Cc4ccc(O)c5c4[C@@]2(CCN3C)[C@@H](O5)C1O (stereo partly drawn) [Compound 9, 7β-Methyl-7,8-dihydromorphine]",increased potency,
"COc1ccc2c3c1O[C@H]1C(O)[C@H](C)C[C@H]4[C@@H](C2)N(C)CC[C@]314 (stereo partly drawn) [Compound 8, 7β-Methyl-7,8-dihydrocodeine]",,increased potency
